Earlier results in patent publication US8071577B2, “Multi-phase contraceptive preparation based on a natural estrogen” (Bayer Pharma Aktiengesellschaft, priority 2004, dated 2011).

Test system: ovulation
Conditions: daily dose known from the literature

Compound | ovulation-inhibitory dose
C[C@]12CCC(=O)C=C1[C@@H]1C[C@@H]1[C@H]1[C@@H]3[C@@H]4C[C@@H]4[C@@]4(CCC(=O)O4)[C@@]3(C)CC[C@@H]12 [drospirenone] | 2.0-3.0 mg a day
C[C@]12CCC3=C4CCC(=O)C=C4CC[C@H]3[C@@H]1CC[C@@]2(O)CC#N [dienogest] | 1.0 mg a day
